Test results taken from patent publication US7078165B2, “Method for modulating Nod1 activity, use of a MTP related molecule for modulating Nod1 activity, and therapeutic applications thereof” (Institut Pasteur, priority 2003, dated 2006).

How the values were obtained:
Nod1 [1] = biological target: T1, Nod1 (Homo sapiens, UniProt Q9Y239); test: Nod1-dependent NF-κB luciferase activation in Nod1-overexpressing HEK293 cells; type: cell-based; parameters: expressed in transfected cells; host or cells: HEK293; settings: for stimulation of the Nod1 pathway by HPLC fractions of N. meningitidis PGN muropeptides: 1% of the volume of each HPLC fraction (FIG. 2b); for detection by Nod1: FIG. 8B-8D, additional experiments; for Nod1-dependent activation of NF-κB by muropeptides: 10 ng (FIG. 2d); for stimulation of the Nod1 pathway (NF-κB activation): LPS, lipid A, lipoproteins preparations at 10 μg/ml (FIG. 1a, 1b)
T1 sequence (Q9Y239 1-953): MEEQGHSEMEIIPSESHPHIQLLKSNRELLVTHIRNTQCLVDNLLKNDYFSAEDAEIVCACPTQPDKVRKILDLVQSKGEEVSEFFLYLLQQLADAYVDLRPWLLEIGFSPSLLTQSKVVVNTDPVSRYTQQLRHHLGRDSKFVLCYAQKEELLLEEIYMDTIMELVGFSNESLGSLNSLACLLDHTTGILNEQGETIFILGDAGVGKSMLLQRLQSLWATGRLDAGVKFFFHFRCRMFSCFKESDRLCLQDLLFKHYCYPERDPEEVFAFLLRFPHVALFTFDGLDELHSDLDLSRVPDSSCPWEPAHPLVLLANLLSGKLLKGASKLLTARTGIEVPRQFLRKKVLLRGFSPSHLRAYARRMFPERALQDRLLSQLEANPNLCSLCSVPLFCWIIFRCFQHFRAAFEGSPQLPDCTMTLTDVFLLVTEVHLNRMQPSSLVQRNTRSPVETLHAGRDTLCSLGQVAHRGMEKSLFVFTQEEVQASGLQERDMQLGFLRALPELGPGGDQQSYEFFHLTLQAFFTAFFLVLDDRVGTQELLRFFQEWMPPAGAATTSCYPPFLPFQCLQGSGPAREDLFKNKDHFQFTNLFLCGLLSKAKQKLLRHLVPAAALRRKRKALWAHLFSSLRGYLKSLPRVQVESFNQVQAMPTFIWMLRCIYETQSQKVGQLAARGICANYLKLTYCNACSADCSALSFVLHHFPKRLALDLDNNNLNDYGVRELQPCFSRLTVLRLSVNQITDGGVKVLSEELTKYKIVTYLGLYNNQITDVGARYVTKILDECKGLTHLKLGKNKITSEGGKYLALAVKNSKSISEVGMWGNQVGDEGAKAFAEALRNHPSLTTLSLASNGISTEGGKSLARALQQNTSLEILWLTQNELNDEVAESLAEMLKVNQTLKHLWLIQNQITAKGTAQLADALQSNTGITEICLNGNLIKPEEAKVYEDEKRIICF
Protocol: (§1) Studies examining the activation of NF-κB by LPS, lipid A, lipoproteins or the purified PGNs in cells over-expressing Nod1 were carried out as described by Inohara et al. (9). Briefly, HEK293 cells were transfected overnight with 10 ng of Nod 1. At the same time, the LPS, lipoproteins or peptidoglycan preparations were added and the NF-κB-dependent luciferase activation was then measured following 24 h of co-incubation.
(§2) NF-κB-dependent luciferase assays were performed in duplicate and data represent at least 3 independent experiments.

Nod2 [2] = biological target: T2, Nod2 (Homo sapiens, UniProt Q9HC29); settings: cited from earlier work
T2 construct: expressed in transfected cells
T2 sequence (Q9HC29 whole entry): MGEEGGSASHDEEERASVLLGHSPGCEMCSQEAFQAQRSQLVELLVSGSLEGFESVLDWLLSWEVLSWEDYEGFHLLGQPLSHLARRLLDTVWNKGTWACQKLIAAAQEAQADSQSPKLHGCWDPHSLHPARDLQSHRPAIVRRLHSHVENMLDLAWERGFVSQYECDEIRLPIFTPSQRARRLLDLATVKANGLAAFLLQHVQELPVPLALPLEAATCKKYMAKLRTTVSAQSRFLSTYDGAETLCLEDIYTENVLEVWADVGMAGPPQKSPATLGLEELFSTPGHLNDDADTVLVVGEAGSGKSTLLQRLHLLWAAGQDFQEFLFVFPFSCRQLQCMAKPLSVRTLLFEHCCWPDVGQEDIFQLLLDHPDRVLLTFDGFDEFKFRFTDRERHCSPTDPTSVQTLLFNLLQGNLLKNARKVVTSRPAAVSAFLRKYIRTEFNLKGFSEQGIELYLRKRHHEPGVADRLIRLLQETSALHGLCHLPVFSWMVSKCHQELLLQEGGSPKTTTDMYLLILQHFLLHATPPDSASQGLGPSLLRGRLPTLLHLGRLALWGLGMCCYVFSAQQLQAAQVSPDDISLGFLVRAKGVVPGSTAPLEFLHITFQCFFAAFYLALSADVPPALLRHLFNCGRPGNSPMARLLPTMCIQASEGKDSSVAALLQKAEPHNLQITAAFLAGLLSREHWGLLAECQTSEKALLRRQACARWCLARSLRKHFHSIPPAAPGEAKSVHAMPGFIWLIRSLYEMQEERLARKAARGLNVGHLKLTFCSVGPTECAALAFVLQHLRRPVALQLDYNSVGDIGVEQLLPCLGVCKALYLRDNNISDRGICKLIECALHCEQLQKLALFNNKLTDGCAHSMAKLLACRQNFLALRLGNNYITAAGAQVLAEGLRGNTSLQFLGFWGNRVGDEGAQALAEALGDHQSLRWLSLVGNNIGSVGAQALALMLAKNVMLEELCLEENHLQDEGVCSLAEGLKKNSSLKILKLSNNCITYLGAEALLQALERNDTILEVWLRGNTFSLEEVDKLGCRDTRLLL

Nod2 [3] = biological target: T2, Nod2; test: Nod2-dependent activation of NF-κB; type: cell-based; settings: 10 ng (FIG. 2d)
Protocol: as §1, §2
(§3) In FIG. 2a, PGN muropeptides from N. meningitides were separated by reverse-phase HPLC and subsequently analysed by mass spectroscopy (see supporting on-line text). […] In FIG. 2d, equivalent amounts (10 ng) of GM-dipeptide (GM-di; synthetic source), GM-tripeptide (GMtri), or GM-tetrapeptide (GM-tetra) were tested for stimulation of Nod 1-, Nod2- or TLR2-dependent activation of NF-κB. […] Buff, buffer diluent of the muropeptides.

Nod1 [4] = biological target: T1, Nod1; test: Nod1-dependent IL-8 production in HeLa epithelial cells (ELISA); type: cell-based; parameters: expressed in transfected cells; settings: HeLa cells transfected with 10 ng Nod1; 18 h; IL-1 at 10 ng/ml (FIG. 2f)
Protocol: To measure Nod1-dependent IL-8 produced in epithelial cells by muropeptides, 5×10^5HeLa cells were seeded into each well of a twelve well plate and transfected the following day with 10 ng Nod1 plus the individual muropeptides (as described above) or treated with IL-1 as a positive control. Eighteen hours later, supernatants were collected and assayed for IL-8 as previously described (10) using an ELISA kit (R and D Systems).
as §3

[5] = test system: NF-κB p65 in intestinal epithelial cells from Nod1-deficient mice; test: NF-κB p65 nuclear translocation in intestinal epithelial cells from Nod1-deficient mice; type: cell-based; settings: microinjection of supernatants; TNFα 10 ng/ml
macrophages = test: Activation of macrophages; type: cell-based

GlcNAc-MurNAc-L-Ala-D-Glu-mesoDAP(GlcNAc-MurNAc-L-Ala-D-Glu-mesoDAP-D-Ala)-D-Ala [dimeric GM-tetrapeptide, reference compound]
stimulation of the Nod1 pathway by HPLC fractions of N. meningitidis PGN muropeptides (Nod1 [1]): does not activate Nod1

GlcNAc-anhydro-MurNAc-L-Ala-D-GlumesoDAP [anhydrous GM-tripeptide]
stimulation of the Nod1 pathway by HPLC fractions of N. meningitidis PGN muropeptides (Nod1 [1]): activates Nod1

CC(=O)N[C@H]1C(O)O[C@H](CO)[C@@H](O)[C@@H]1O[C@H](C)C(=O)N[C@@H](C)C(=O)N[C@H](CCC(=O)O)C(N)=O (mixture of isomers) [M-dipeptide, muramyl dipeptide]
recognition by Nod2 (previous findings) (Nod2 [2]): recognizes

CC(=O)N[C@H]1[C@H](O[C@H]2[C@H](O[C@H](C)C(=O)N[C@@H](C)C(=O)N[C@H](CCC(=O)O)C(N)=O)[C@@H](NC(C)=O)C(O)O[C@@H]2CO)O[C@H](CO)[C@@H](O)[C@@H]1O (stereo partly drawn) [GM-dipeptide]
Nod2-dependent activation of NF-κB by muropeptides (Nod2 [3]): detects

CC(=O)N[C@H]1[C@@H](OP(=O)(O)OP(=O)(O)OC[C@H]2O[C@@H](n3ccc(=O)[nH]c3=O)[C@H](O)[C@@H]2O)O[C@H](CO)[C@@H](O)[C@@H]1O[C@H](C)C(=O)N[C@@H](C)C(=O)N[C@H](CCC(=O)N[C@@H](CCC[C@@H](N)C(=O)O)C(=O)O)C(=O)O [UDP-MurTriDAP]
detection by Nod1 (Nod1 [1]): detects

GlcNAc-MurNAc-L-Ala-D-Glu-mesoDAP-DAla [GM-tetrapeptide]
Nod1-dependent activation of NF-κB by muropeptides (Nod1 [1]): not sensed

GlcNAc-MurNAc-L-Ala-D-Glu-mesoDAP [GM-tripeptide]
production of IL-8 (Nod1 [4]): production of the pro-inflammatory chemokine, IL-8 | Nod1-dependent activation of NF-κB by muropeptides (Nod1 [1]): specifically detects | stimulation of the Nod1 pathway by HPLC fractions of N. meningitidis PGN muropeptides (Nod1 [1]): activates Nod1 | detection by Nod1 (Nod1 [1]): detects

Lpp: the most abundant lipoprotein in E. coli (lipidated)
stimulation of the Nod1 pathway (NF-κB activation) (Nod1 [1]): not possible to stimulate the Nod1 pathway

TNFα
NF-κB nuclear translocation in Nod1-deficient cells [5]: can efficiently stimulate NF-κB nuclear translocation

C[C@H](N)C(=O)N[C@H](CCC(=O)NC(CCCC(N)C(=O)O)C(=O)O)C(=O)O (stereo partly drawn) [tripeptide L-Ala-D-Glu-mesoDAP, L-Ala-D-Glu-mesoDAP]
detection by Nod1 (Nod1 [1]): able to sense | detection by Nod1 (Nod1 [1]; listed as TriDAP): detects

CC(=O)NC1C(O)OC(CO)C(O)C1OC(C)C(=O)NC(C)C(=O)NC(CCC(=O)NC(CCCC(N)C(=O)O)C(=O)O)C(=O)O (stereo not drawn) [MurTriDAP]
detection by Nod1 (Nod1 [1]): detects

lipid A [reference compound]
activation of macrophages (macrophages): could efficiently activate macrophages | stimulation of the Nod1 pathway (NF-κB activation) (Nod1 [1]): could not stimulate the Nod1 pathway

Pam3Cys-Ser-Lys4-OH [synthetic lipopeptide, reference compound]
stimulation of the Nod1 pathway (NF-κB activation) (Nod1 [1]): not possible to stimulate the Nod1 pathway
